Measurements taken from patent US20210395210A1, “INHIBITION OF BACTERIAL CHAPERONIN SYSTEMS” (THE TRUSTEES OF INDIANA UNIVERSITY, priority 2018, published 2021).
Where two headings read alike, the source gives them in different places.

How the values were obtained:
[1] = test system: S. aureus Rosenbach (ATCC 25923) biofilm formation; experiment: S. aureus biofilm prevention assay (crystal violet); format: cell-based; conditions: Staphylococcus aureus, read-out: S. aureus Proliferation & Biofilm Assay EC50 Preventing Biofilm Formation
Protocol: The biofilm prevention assay was carried out with S. aureus Rosenbach (ATCC 25923) using a quantitative crystal violet-based adherence assay on 96-well plates. S. aureus (ATCC 25923) bacteria were streaked onto a Tryptic Soy Broth (TSB) agar plate and grown overnight at 37° C. A fresh aliquot of TSB media was inoculated with a single bacterial colony and the cultures were grown overnight at 37° C. with shaking (250 rpm). The overnight culture was then sub-cultured (1:5 dilution) into a fresh aliquot of TSB media supplemented to a final concentration of 0.5% glucose and grown at 37° C. for 1 h with shaking, then diluted into fresh TSB media supplemented with 0.5% glucose to achieve a final OD600 reading of 0.01. Aliquots of the diluted culture (100 μL) were dispensed to 96 well polystyrene plates along with addition of 1 μL test compounds in DMSO. The inhibitor concentration range during the assay was 100 μM to 46 nM (3-fold dilution series). A second set of baseline control plates were prepared analogously, but without any bacteria added, to correct for possible compound absorbance and/or precipitation. Plates were sealed with “Breathe Easy” oxygen permeable membranes (Diversified Biotech) and left to incubate at 37° C. without shaking (stagnant assay) until the biofilm was formed. After 24 h, the planktonic cultures were removed and the plates were washed gently 2-3 times with 200 μl of water. Next, the plates were air dried and the adherent biofilms were stained with 150 μL of crystal violet solution (2.3% crystal violet in 20% Ethanol, Sigma Aldrich #HT90132) for 15 minutes at R.T. The unbound crystal violet stain was removed, then plates were gently washed again with running water and air dried for 10 min. Quantitative assessment of biofilm formation was obtained by adding 100 μL of developer solution (4:1:5 mixture of MeOH:AcOH:H2O) per well. Well absorbance was then read at 595 nm using a Molecular Devices SpectraMax Plus384 microplate reader. […] Results presented represent the averages of EC50 values obtained from at least triplicate experiments.
Establishing biofilms is another effective mechanism by which S. aureus can evade the effects of many current antibiotics, including vancomycin. […] Briefly, test compounds (1, 2, 5, 8, 11, and vancomycin) were incubated with S. aureus bacteria in media supplemented with 0.5% glucose (to support biofilm formation) for 24 h at 37° C. After 24 h, the supernatant was removed, the wells were gently washed, and the biofilm that had formed on the well surfaces were stained with crystal-violet and quantified by UV-Vis spectroscopy.

native Rho (rhodanese) = biological target: T1, native Rho (rhodanese) (Bos taurus, UniProt P00586); experiment: Counter-screen for inhibition of native rhodanese enzymatic activity; format: biochemical; conditions: for log(IC50) Native Rho Reporter: log of IC50 (μM scale), with standard deviation
T1 construct: purchased Roche (so in the source) R1756
T1 sequence (P00586 1-297): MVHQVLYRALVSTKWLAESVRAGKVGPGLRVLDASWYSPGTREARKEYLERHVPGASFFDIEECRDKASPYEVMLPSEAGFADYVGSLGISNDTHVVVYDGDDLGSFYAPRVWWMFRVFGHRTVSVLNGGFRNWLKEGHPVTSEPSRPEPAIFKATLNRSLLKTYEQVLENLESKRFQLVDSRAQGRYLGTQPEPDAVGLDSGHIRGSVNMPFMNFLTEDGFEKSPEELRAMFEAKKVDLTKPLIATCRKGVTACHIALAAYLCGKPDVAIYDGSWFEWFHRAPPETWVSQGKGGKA
Protocol: Reagent Preparations & Assay Protocol: Reagents were identical to those used in the GroEUES-dRho refolding assay described above; however, the assay protocol differed in the sequence of compound addition to the wells. Compounds were pin-transferred after the 60 minute incubation for the refolding cycle, but prior to the addition of the thiocyanate enzymatic assay stock. Thus, the refolding reactions were allowed to proceed for 60 min at 37° C. in the absence of test compounds, but the enzymatic activity of the refolded rhodanese reporter enzyme was monitored in the presence of test compounds (inhibitor concentration range during the enzymatic reporter reaction is 100 µM to 46 nM-3-fold dilutions). IC50 values for the rhodenase reporter enzyme were determined as described above. Results presented represent the averages of IC50 values obtained from at least quadriplicate (duplicate of duplicate) replicates.

in vitro = conditions: human
Protocol: HEK 293 cells were maintained in MEM medium (Corning Cellgro, 10-009 CV) supplemented with 10% FBS (Sigma, F2242). […] Cells at 80% confluence were harvested and diluted in growth medium, then 45 μL of the THLE-3 cells (1,500 cells/well) or HEK 293 cells (1,500 cells/well) were dispensed per well, and plates were sealed with “Breathe Easy” oxygen permeable membranes (Diversified Biotech) and incubated at 37° C., 5% CO2, for 24 h.

[2] = read-out: Biochemical Assay IC50 Native Rho Reporter

SMILES	EC50 ([1]; ATCC25923, 24 h)	IC50 (native Rho (rhodanese); [2])	inhibition of native Rho enzymatic activity (in words) (native Rho (rhodanese); false-positive counter-screen)	EC50 ([1]; ATCC25923, 24 h, media with 0.5% glucose, crystal violet A595)	log(IC50) Native Rho Reporter (native Rho (rhodanese))	CC50 at 48 h (in vitro)	IC50 (native Rho (rhodanese))
O=C(Nc1ccc(Sc2nc3ccccc3s2)c(Cl)c1)c1cc(Br)cc(Br)c1O [Compound 1, N-(4-(Benzo[d]thiazol-2-ylthio)-3-chlorophenyl)-3,5-dibromo-2-hydroxybenzamide]	0.72 µM	> 100 µM					
O=C(Nc1ccc(Sc2nc3ccccc3s2)c(Cl)c1)c1cccc(Br)c1O [Compound 2, N-(4-(Benzo[d]thiazol-2-ylthio)-3-chlorophenyl)-3-bromo-2-hydroxybenzamide]	1 µM		inactive against the reporter enzymes				
O=C(Nc1ccc(Sc2nc3ccccc3s2)cc1)c1cc(Br)cc(Br)c1O [Compound 5, N-(4-(Benzo[d]thiazol-2-ylthio)phenyl)-3,5-dibromo-2-hydroxybenzamide]	0.54 µM						
O=C(Nc1ccc(Sc2nc3ccccc3s2)cc1)c1ccccc1O [Compound 8, N-(4-(Benzo[d]thiazol-2-ylthio)phenyl)-2-hydroxybenzamide]		> 100 µM		0.91 µM			
O=C(Nc1cccc(Cl)c1)c1cc(Br)ccc1O [Compound 11, 5-Bromo-N-(3-chlorophenyl)-2-hydroxybenzamide]	0.44 µM	> 100 µM			>2		
COc1c(Br)cc(Br)cc1C(=O)Nc1cccc(Cl)c1 [Compound 37, 3,5-Dibromo-N-(3-chlorophenyl)-2-methoxybenzamide]		> 100 µM			>2	> 100 µM	
COc1c(Br)cccc1C(=O)Nc1cccc(Cl)c1 [Compound 38]		> 100 µM			>2	> 100 µM	
COc1ccc(Br)cc1C(=O)Nc1cccc(Cl)c1 [Compound 39, 5-Bromo-N-(3-chlorophenyl)-2-methoxybenzamide]		> 100 µM			>2	93.3 µM	
COc1ccccc1C(=O)Nc1cccc(Cl)c1 [Compound 40, N-(3-Chlorophenyl)-2-methoxybenzamide]		> 100 µM			>2	> 100 µM	
COc1c(Br)cc(Br)cc1C(=O)Nc1ccccc1 [Compound 41, 3,5-Dibromo-2-methoxy-N-phenylbenzamide]		> 100 µM			>2	> 100 µM	
COc1c(Br)cccc1C(=O)Nc1ccccc1 [Compound 42, 3-Bromo-2-methoxy-N-phenylbenzamide]		> 100 µM			>2	> 100 µM	
COc1ccc(Br)cc1C(=O)Nc1ccccc1 [Compound 43, 5-Bromo-2-methoxy-N-phenylbenzamide]		> 100 µM			>2	> 100 µM	
COc1ccccc1C(=O)Nc1ccccc1 [Compound 44, 2-Methoxy-N-phenylbenzamide]		> 100 µM			>2	> 100 µM	
O=C(Nc1ccc(Oc2ccc(Cl)cc2)c(Cl)c1)c1cc(I)cc(I)c1O [Rafoxanide, rafoxanide, reference compound]					>2	24 µM	> 100 µM
CN[C@H](CC(C)C)C(=O)N[C@H]1C(=O)N[C@@H](CC(N)=O)C(=O)N[C@H]2C(=O)N[C@H]3C(=O)N[C@H](C(=O)N[C@H](C(=O)O)c4cc(O)cc(O)c4-c4cc3ccc4O)[C@H](O)c3ccc(c(Cl)c3)Oc3cc2cc(c3O[C@@H]2O[C@H](CO)[C@@H](O)[C@H](O)[C@H]2O[C@H]2C[C@](C)(N)[C@H](O)[C@H](C)O2)Oc2ccc(cc2Cl)[C@H]1O [Vancomycin, vancomycin, reference compound]	0.54 µM				>2	> 100 µM	> 100 µM
